Where a chain is given by its changes, count along the chain named. Where two headings read alike, the source gives them in different places.
Experiments:
MGL = target: T1, MGL (Rattus norvegicus, UniProt Q8R431); test: 2-AG accumulation assay in rat brain homogenate; format: biochemical; settings: rat brain homogenate, 2-AG accumulation as percent of vehicle; for 2-AG accumulation, % of vehicle control at 0.1 µM: compound 0.1 μM, read-out: Rat Brain 2AG % VehCntrl (%) @ 0.1 μM; for 2-AG accumulation, % of vehicle control at 1 µM: compound 1 μM, read-out: Rat Brain 2AG % VehCntrl (%) @ 1 μM; for 2-AG accumulation, % of vehicle control at 10 µM: compound 10 μM, read-out: Rat Brain 2AG % VehCntrl (%) @ 10 μM
T1 construct: one g rat brain was homogenized using a Polytron homogenizer; from tissue; host or cells: rat brain homogenate
T1 sequence (Q8R431 1-303): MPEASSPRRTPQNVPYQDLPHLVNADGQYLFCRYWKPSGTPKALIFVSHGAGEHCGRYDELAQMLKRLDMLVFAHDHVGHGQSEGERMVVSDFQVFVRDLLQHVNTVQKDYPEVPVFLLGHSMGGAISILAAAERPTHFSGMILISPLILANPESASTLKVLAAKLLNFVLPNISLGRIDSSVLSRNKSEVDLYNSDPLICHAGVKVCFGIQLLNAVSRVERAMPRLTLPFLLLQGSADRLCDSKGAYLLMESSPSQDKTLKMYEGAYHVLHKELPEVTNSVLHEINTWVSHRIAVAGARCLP

mutant MGL = target: T2, mutant MGL (Homo sapiens, UniProt Q99685, L169S/L176S); test: MGL ThermoFluor assay - mutant; format: binding; settings: read-out: MGL mutant ThermoFluor Kd
T2 sequence (Q99685 1-303 L169S/L176S): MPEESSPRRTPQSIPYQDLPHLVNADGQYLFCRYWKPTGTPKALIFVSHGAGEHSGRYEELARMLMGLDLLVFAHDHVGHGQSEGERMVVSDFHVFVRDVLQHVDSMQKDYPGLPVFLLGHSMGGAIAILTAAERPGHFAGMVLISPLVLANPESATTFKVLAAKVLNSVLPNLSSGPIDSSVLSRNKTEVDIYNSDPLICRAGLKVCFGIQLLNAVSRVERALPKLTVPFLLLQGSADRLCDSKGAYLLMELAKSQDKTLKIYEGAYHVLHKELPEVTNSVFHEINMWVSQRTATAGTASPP

[1] = test system: CFA-induced paw radiant heat hypersensitivity; test: CFA-induced paw radiant heat hypersensitivity; format: in vivo, rat; settings: Rattus norvegicus, po, 30 mg/kg p.o., HPβCD, last time point 180 or 300 min
[2] = target: T3, purified wild type MGL (wt-MGLL 6H-11-313) (Homo sapiens, UniProt Q99685)
T3 sequence (Q99685 1-303): T2 sequence (Q99685 1-303 L169S/L176S) with S169L, S176L

[3] = ThermoFluor thermal stability binding assay
[4] = group mean values, read-out: CFA thermal hypersensitivity Method 1: peak % reversal
[5] = individual animal values, read-out: CFA thermal hypersensitivity Method 2: peak % reversal
[6] = ThermoFluor concentration-response

2-AG accumulation, % of vehicle control at 0.1 µM (MGL) [%]	2-AG accumulation, % of vehicle control at 1 µM (MGL) [%]	Kd (mutant MGL; [3]) [nM]	IC50 [2] [nM]	Kd (mutant MGL; [6]) [nM]	2-AG accumulation, % of vehicle control at 10 µM (MGL) [%]	2-AG accumulation, % of vehicle control at 0.01 µM (MGL; compound 0.01 μM, read-out: Rat Brain 2AG % VehCntrl (%) @ 0.01 μM) [%]	Compound	inhibition in vivo at 30 mg/kg [1, 4] [%]	inhibition in vivo at 30 mg/kg [1, 5] [%]
276	552	12.5	< 5				O=C(c1ccc(-c2cccc(C(F)(F)F)c2)cc1)N1CC(N2CCN(C(=O)c3cscn3)CC2)C1 [Cpd 229, 1-(1,3-Thiazol-4-ylcarbonyl)-4-(1-{[3′-(trifluoromethyl)biphenyl-4-yl]carbonyl}azetidin-3-yl)piperazine]	55.8	56.6
	944		< 5	1			O=C(c1ccc2c(ccn2-c2ccc(F)cc2F)c1)N1CC(N2CCN(C(=O)c3nccs3)CC2)C1 [Cpd 1364, 1-(2,4-Difluorophenyl)-5-({3-[4-(1,3-thiazol-2-ylcarbonyl)piperazin-1-yl]azetidin-1-yl}carbonyl)-1H-indole]	17	
107	319	21.5	49.4		624		Cc1cc(-c2ccc(F)c(Cl)c2)ccc1C(=O)N1CC(N2CCN(C(=O)c3cscn3)CC2)C1 [Cpd 253, 1-{1-[(3′-Chloro-4′-fluoro-3-methylbiphenyl-4-yl)carbonyl]azetidin-3-yl}-4-(1,3-thiazol-4-ylcarbonyl)piperazine]	64.3	87.2
	478	92.7	69.5				O=C(c1ccccc1)N1CCN(C2CN(C(=O)c3cc4ccc(C(F)(F)F)cc4s3)C2)CC1 [Cpd 325, 1-(Phenylcarbonyl)-4-(1-{[6-(trifluoromethyl)-1-benzothiophen-2-yl]carbonyl}azetidin-3-yl)piperazine]	62.1	63.1
	310	6.9	45.7				O=C(c1ccccc1)N1CCN(C2CN(C(=O)c3sc4cc(Br)ccc4c3Cl)C2)CC1 [Cpd 331]	14.3	
166	272	49.8	13		671	103	O=C(c1cscn1)N1CCN(C2CN(C(=O)c3cc4ccc(C(F)(F)F)cc4s3)C2)CC1 [Cpd 337]	14.3	17.6
	761		< 5	1			O=C(c1ccc2c(-c3ccc(C(F)(F)F)cc3)c[nH]c2c1)N1CC(N2CCN(C(=O)c3nccs3)CC2)C1 [Cpd 1340]	13.1	
	242		136	33			O=C(c1ccccc1)N1CCN(C2CN(C(=O)c3sc4cc(C(F)(F)F)ccc4c3F)C2)CC1 [Cpd 509]	17.8	
	576		< 5	8			O=C(c1ccc2c(cnn2-c2ccccc2)c1)N1CC(N2CCN(C(=O)c3nccs3)CC2)C1 [Cpd 1360, 1-Phenyl-5-({3-[4-(1,3-thiazol-2-ylcarbonyl)piperazin-1-yl]azetidin-1-yl}carbonyl)-1H-indazole]	40.5	40.5
144	586	14.3	17		791		O=C(c1cscn1)N1CCN(C2CN(C(=O)c3ccc(-c4cccc(C(F)(F)F)c4)cc3Cl)C2)CC1 [Cpd 251, 1-(1-{[3-Chloro-3′-(trifluoromethyl)biphenyl-4-yl]carbonyl}azetidin-3-yl)-4-(1,3-thiazol-4-ylcarbonyl)piperazine]	35.1	38.5
	878	6	13				O=C(c1ccc(-c2cccc(C(F)(F)F)c2)c(Cl)c1)N1CC(N2CCN(C(=O)c3cscn3)CC2)C1 [Cpd 1102, 1-(1-{[2-Chloro-3′-(trifluoromethyl)biphenyl-4-yl]carbonyl}azetidin-3-yl)-4-(1,3-thiazol-4-ylcarbonyl)piperazine]	38	45.3
	635		< 5	1			O=C(c1ccc2c(ccn2-c2ccc(F)c(F)c2)c1)N1CC(N2CCN(C(=O)c3nccs3)CC2)C1 [Cpd 1362, 1-(3,4-Difluorophenyl)-5-({3-[4-(1,3-thiazol-2-ylcarbonyl)piperazin-1-yl]azetidin-1-yl}carbonyl)-1H-indole]	186	
	319		92	197			O=C(c1ccc2nc(-c3ccccc3)sc2c1)N1CC(N2CCN(C(=O)c3cscn3)CC2)C1 [Cpd 1187, 2-Phenyl-6-({3-[4-(1,3-thiazol-4-ylcarbonyl)piperazin-1-yl]azetidin-1-yl}carbonyl)-1,3-benzothiazole]	16.3	
198	198		258	81	522		O=C(c1cscn1)N1CCN(C2CN(C(=O)c3ccc(-c4ccccc4)cc3Cl)C2)CC1 [Cpd 1221]	44.7	46.7
	744	3.1	< 5				O=C(c1cscn1)N1CCN(C2CN(C(=O)c3sc4cc(-c5ccccc5)ccc4c3Cl)C2)CC1 [Cpd 345]	25	26.3
	628		< 5	14			O=C(c1ccc2c(ccn2-c2ccc(F)c(F)c2)c1)N1CC(N2CCN(C(=O)c3cscn3)CC2)C1 [Cpd 1363, 1-(3,4-Difluorophenyl)-5-({3-[4-(1,3-thiazol-4-ylcarbonyl)piperazin-1-yl]azetidin-1-yl}carbonyl)-1H-indole]	69.7	
	551	6	8				O=C(c1ccc(-c2cccc(C(F)(F)F)c2)c(F)c1)N1CC(N2CCN(C(=O)c3cscn3)CC2)C1 [Cpd 1070, 1-(1-{[2-Fluoro-3′-(trifluoromethyl)biphenyl-4-yl]carbonyl}azetidin-3-yl)-4-(1,3-thiazol-4-ylcarbonyl)piperazine]	25.7	23.1
127	441	98.8	50.6		743		O=C(c1ccc(OCc2ccccn2)c(Cl)c1)N1CC(N2CCN(C(=O)c3nccs3)CC2)C1 [Cpd 407, 1-(1-{[3-Chloro-4-(pyridine-2-ylmethoxy)phenyl]carbon-yl}azetidin-3-yl)-4-(1,3-thiazol-2-ylcarbonyl)piperazine]	1.6	1.4
